“Also recorded” adds a separate entry of the source.
What was measured:
lipid peroxidation = experiment: Ascorbate/Fe^2+ -dependent lipid peroxidation; type: biochemical; conditions: ascorbate/Fe^2+ model, in vitro
Description: The indenoindole compounds are efficient as flee-radical scavengers or antioxidants. An assay system measuring the concentration of the compounds of formulas I and II required to inhibit lipid peroxidation by 50% (IC50) was used. The assay system, ascorbate/Fe^2+ -dependent lipid peroxidation, was the same system used in EP-A 409 410 and detailed information about the system is given in said patent specification.

[1] = system: lipid peroxidation in renal tissue; experiment: In vitro hypoxia and reoxygenation of kidney tissue (TBARS formation); type: cell-based; conditions: pH 7.4; rat kidney slices, 37° C., pH 7.40, 40 min hypoxia (argon), 30 min reoxygenation; read-out: pIC50, -log of the concentration needed to reduce TBARS formation by 50% of the corresponding vehicle value (converted)
Protocol: Lipid peroxidation was also tested in renal tissue. Samples were obtained from anesthetized rats, cut into 2 mm slices and put into 50 ml Erlenmeyer flasks containing 40 mmol 1^-1 Hepes buffer (pH 7.40) 37° C. (10-100 mg tissue per 4 ml buffer). The tissue was made hypoxic for 20 min by bubbling a fine stream of argon gas through the buffer. After that an antioxidant or the corresponding vehicle was added to the buffer and the tissue was kept under argon for an additional period of 20 min. The sample was then reoxygenated by vigourous bubbling of the buffer with 95.5% O2 :CO2. After 30 min reoxygenation the iron chelator deferoxamine mesylate (Ciba Geigy AG, Basel, Switzerland) was added (final concentration 45 μmol 1^-1). The sample was homogenized on ice, quickly frozen in dry-ice and alcohol and stored at -70° C. After thawing the formation of 2-thiobarbituric acid-reactive material (TBARS) was determined (Svensson et al Scand J Clin Invest 1993:53). The potencies of the antioxidants (pIC50 i.e. -log of the concentration (antioxidant) needed to reduce TBARS formation by 50% of the corresponding vehicle value) was for compound I: 6.8 and for compound II: 6.8.

[2] = system: lipid peroxidation in renal tissue; experiment: Ex vivo hypoxia and reoxygenation of renal tissue after oral administration to mice; type: in vivo, mouse; conditions: for time after administration up till which lipid peroxidation was abolished: oral dose of 50 mg/kg; for inhibition of lipid peroxidation in renal tissue subjected to ex vivo hypoxia and reoxygenation: oral dose of 50 mg/kg (dose for compounds I and II)
[3] = system: isolated heart cells (myocytes); experiment: Inhibition of reoxygenation damage in isolated heart cells (LD-leakage); type: cell-based, rat; conditions: for prevention of ischemic and reperfusion damage to isolated rat heart cells: additive to organ preservation solutions
Protocol: Hearts were collected from 2 and 6 days old rats and the ventricles were dissected free, placed in Hanks balanced salt solution without Ca^2+ and Mg^2+ but with 0.35 g/l sodium-carbonate and cut in small pieces. The cells were dispersed in the same solution but supplemented with collagenase solution (type 1, 0.8 mg/ml) at 37° C. for 10 minutes and centrifuged, 160 xg for 5 minutes. Subsequently, 5 serial 20 minutes digestions were performed. The cells from the initial digestion were discarded. Centrifugation was made after each 20 minutes period and the collage nase solution was changed to Ham's F 10 culture medium, supplemented with 10% fetal bovine serum (FBS), glutamine 2 mM, penicillin 50 IU/ml and streptomycin 50 μg/ml. A modified method to enrich the isolation of myocytes, were used, including replaiting the cells twice for 30 and 90 min, respectively. The myocytes were plated on 35 mm plastic culture dishes at a density of approximately 9×10^5 cells/ml (1.8×10^6 cells/dish). The cells were kept in culture for 6 days at 37° C. and 5% CO2 under aerobic conditions in a Forma Scientific carbon dioxide incubator, 5% CO2. During this period the cells reached confluence and were beating spontaneously at an approximate frequency of 20-40 beats/min. Each culture dish contained 0.9±0.2 mg protein. The supplemented F10-medium was changed each day. The antioxidant compound II was added to the culture medium in ethanol, reaching a final concentration of 0.1% ethanol. The final concentration of compound II in the culture medium was 0.01, 0.1, 1.0 or 5.0 μmol/l. Before starting the experiment the medium above the myocytes were removed and changed to fresh F10-medium supplemented with glutamine, which was made hypoxic by argon bubbling for 1 hour before addition to the cells. The culture plates were transferred to specially designed air tight thermostated chambers. The experiment lasted for 300 min including 60 min hypoxia, when nitrogen (95% N2, 5% CO2) was slowly gassed above the cells, followed by 240 min reoxygenation (95% O2, 5% CO2). Cell viability was determined by leakage of LD into the medium, and was analyzed after various times 1, 30, 60, 90, 120, 180, 240 and 300 min.

[4] = system: isolated perfused rat heart; experiment: Postischemic recovery of the isolated perfused (Langendorff) heart after six hours cold ischemia; conditions: for prevention of ischemic and reperfusion damage to isolated perfused rat heart: additive to organ preservation solutions
Protocol: Experiments were designed to investigate the effect on the myocardial recovery after six hours cold ischemia when an antioxidative agent compound II, was added to a crystalloid cardioplegic solution, such as Plegisol (Abbott). The retrogradely perfused (Langendorff) isolated rat heart with an intra-ventricular balloon was used. The hearts were single flushed perfused (10 ml, 4° C.) with either plain Plegisol or Plegisol supplemented with 1 μmol/l of compound II. The hearts were then stored for 6 hours in the respective solution at 4° C. In a third group hearts were single flush perfused with Plegisol without storage of the hems.

[5] = system: oxidation of lipoproteins in human plasma (rabbit smooth muscle cells); experiment: Oxidation of lipoproteins in human plasma in the presence of rabbit smooth muscle cells; type: cell-based
[6] = system: oxidation of lipoproteins in human plasma (mouse peritoneal macrophages); experiment: Oxidation of lipoproteins in human plasma in the presence of mouse peritoneal macrophages; type: cell-based, human plasma; mouse cells
rat bone marrow = experiment: Ischemic and reperfusion damage to rat bone marrow; conditions: additive to organ preservation solutions
rat kidney = experiment: Ischemic and reperfusion damage to rat kidney; conditions: additive to organ preservation solutions
rat liver = experiment: Ischemic and reperfusion damage to rat liver; conditions: additive to organ preservation solutions

| pIC50, inhibition of ascorbate/Fe^2+ -dependent lipid peroxidation (lipid peroxidation) | IC50 [1] | SMILES | time after administration up till which lipid peroxidation was abolished [2] | inhibition of lipid peroxidation in renal tissue subjected to ex vivo hypoxia and reoxygenation [2] | inhibition at 1 µM ([3]; Rattus norvegicus, 1 μmol/l, 60 min hypoxia, 240 min reoxygenation, read-out: reduction of the damage (LD-leakage)) | IC50 ([3]; Rattus norvegicus, 60 min hypoxia, 240 min reoxygenation, read-out: calculated pIC50 (-logIC50), LD-leakage (converted)) | prevention of ischemic and reperfusion damage to isolated rat heart cells [3] | postischemic LVDP compared to plain Plegisol, in words ([4]; Plegisol with 1 μmol/l, 6 hours at 4° C.) | postischemic left ventricular developed pressure (LVDP) ([4]; Plegisol with 1 μmol/l, 6 hours at 4° C., mean±SEM, plain Plegisol 57±11%, without storage 89±1%) | prevention of ischemic and reperfusion damage to isolated perfused rat heart [4] | prevention of oxidation of lipoproteins in human plasma [5] | prevention of oxidation of lipoproteins in human plasma [6] | prevention of ischemic and reperfusion damage to rat bone marrow (rat bone marrow) | prevention of ischemic and reperfusion damage to rat kidney (rat kidney) | prevention of ischemic and reperfusion damage to rat liver (rat liver) | time after administration up to which inhibitory effect on lipid peroxidation could be detected ([2]; dose not separately printed for compound III) |
| --- | --- | --- | --- | --- | --- | --- | --- | --- | --- | --- | --- | --- | --- | --- | --- | --- |
| 8.2 | 158 nM | COc1cc(C)c2c(c1)C1c3ccccc3CC1N2 (stereo not drawn) [Compound II, 9-Methoxy-7-methyl-iso-THII] | ≤ 6 h | abolished lipid peroxidation in renal tissue | 90% | 31.6 nM | prevent ischemic and reperfusion damage | significantly improved; also recorded: drastically improves the functional recovery of rat hearts | 90±9 % of preischemic value | prevent ischemic and reperfusion damage | prevent efficiently oxidation of lipoproteins | prevent efficiently oxidation of lipoproteins | prevent ischemic and reperfusion damage | prevent ischemic and reperfusion damage | prevent ischemic and reperfusion damage |  |
| 7.4 |  | Cc1cc(C)c2c(c1)C1(C)Cc3ccccc3C1(C)N2 (stereo not drawn) [Compound III, 4b,6,8,9b-Tetramethyl-THll, reference compound] |  | only weak inhibitory effect on lipid peroxidation |  |  |  |  |  |  |  |  |  |  |  | up to 30 min |
| 5.0 |  | Cc1c(C)c2c(c(C)c1O)CCC(C)(CCCC(C)CCCC(C)CCCC(C)C)O2 (stereo not drawn) [α-Tocopherol, reference compound] |  |  |  |  |  |  |  |  |  |  |  |  |  |  |
| 8.0 | 158 nM | COc1cc(C)c2c(c1)C1Cc3ccccc3C1N2 (stereo not drawn) [Compound I, 8-Methoxy-6-methyl-THII] | ≤ 6 h | abolished lipid peroxidation in renal tissue |  |  | prevent ischemic and reperfusion damage |  |  | prevent ischemic and reperfusion damage | prevent efficiently oxidation of lipoproteins | prevent efficiently oxidation of lipoproteins | prevent ischemic and reperfusion damage | prevent ischemic and reperfusion damage | prevent ischemic and reperfusion damage |  |
